# Reference: PMC8201255, “A Combined Experimental and Theoretical Study of Nitrofuran Antibiotics: Crystal Structures, DFT Computations, Sublimation and Solution Thermodynamics” (Molecules, 2021)
# Read-outs that look alike come from different tables or passages of the source.
# Tests used:
# [1] = 298.15 K, cited from earlier work
# [2] = for solubility X2·10^5: p = 0.1 MPa, value is X2·10^5
# Protocol: All the solubility experiments were carried out using the analytical isothermal shake-flask method. […] In brief, an excess amount of API was added to triplicate Pyrex glass tubes containing the respective dissolution media. […] The concentrations of the dissolved APIs were measured spectrophotometrically using a Cary 50 UV-vis spectrophotometer (Varian, Australia) with an accuracy of 2–4%.
# Conversion of molarity to mole fraction concentration scale was produced using Equation (10):(10) X2=M2S2/S2(M2−M1)+1000ρ where S2 is molarity of API (mol·L^−1), M1 and M2 are the molar masses of solvent and solute, respectively, and ρ (g·cm^−3) is the density of the pure solvents. The mole fraction solubilities for buffer solutions were calculated taking into account the buffer compositions. Densities of buffer solutions (pH 2.0 and 7.4) were measured and published early.
# The results are stated as the average of at least three replicated experiments.
# [3] = for TΔSsol0 / ΔGsol0 / ΔHsol0 / ΔSsol0: dissolution; for ςHsolv: relative fraction of solvation enthalpy; for ςTSsolv: relative fraction of solvation entropy; for TΔSsolv0 / ΔGsolv0 / ΔHsolv0 / ΔSsolv0: solvation
# [4] = Protocol: Details of the technique are given in the literature. In brief: a flow of the inert gas (N2) through the tube transported the saturated vapor of the sample under investigation at a constant temperature and flow rate. The sample vapor is completely condensed at some point downstream. The sample vapor pressure at this temperature was calculated from the sublimated sample amount and the volume of the inert gas used. The mass of sublimated substance was determined using a spectrophotometer method by means of spectrophotometer Cary-50 (Varian, Australia).
# The equipment was calibrated with benzoic acid, as specified in earlier work of our research group.
# Absolute vapor pressures for compounds are usually approximated by the Clarke–Glew equation [38].
# The value of the sublimation enthalpy is calculated by the Clausius–Clayperon equation:(7) ΔcrgHm0(T)=−R⋅(∂(lnp)/∂(1/T))
# The sublimation entropy at a given temperature T is calculated by the following relation:(8) ΔcrgSm0(T)=(ΔcrgHm0(T)−ΔcrgGm0(T))/T with ΔcrgGm0(T)=−RTln(p/p0) , where p0 is the standard pressure (1 × 10^5 Pa).
# For experimental reasons, the sublimation data are obtained at high temperatures. However, in comparison with the effusion methods, the temperatures are much lower, which makes extrapolation to room conditions easier.
# Van der Waals molecular volumes ( V^vdw ) were estimated by the program GEPOL [50] using atom radiuses proposed by Kitaigorodskii. The free molecular volume in the crystal lattice was calculated on the basis of the single crystal X-ray diffraction data:(14) V^free=V^mol−V^vdw where V^mol is the molecular volume in crystal lattice, which is estimated by the equation:(15) V^mol=V^cell/Z where V^cell is the unit cell volume and Z is the number of molecules in the unit cell.
# Remark: listed apart in the source
# [5] = ref Koradia et al. [34]; cited from earlier work
# [6] = buffer pH 2.0, 298.15 K (Table 5)
# [7] = buffer pH 7.4, 298.15 K (Table 5)
compound,measurement,setting,value
"O=C1CNC(=O)N1 [2,4-Imidazolidinedione]",Δgcr Hm0 (298.15),[1]; ref [7],27.8 kcal/mol
same,ΔgcrGm0 (298.15),[1]; ref [7],13.8 kcal/mol
O=C1CNC(=S)N1 [2-Thiohydantoin],Δgcr Hm0 (298.15),[1]; ref [7],28.47 kcal/mol
same,ΔgcrGm0 (298.15),[1]; ref [7],14.4 kcal/mol
O=C1NCCN1 [2-imadazolidinone],Δgcr Hm0 (298.15),[1]; ref [5],20 kcal/mol
same,ΔgcrGm0 (298.15),[1]; ref [5],10.2 kcal/mol
O=Cc1ccc(-c2ccc([N+](=O)[O-])cc2)o1 [5-(4-nitrophenyl)-furan-2-carbaldehyde],Δgcr Hm0 (298.15),[1]; ref [8],32.48 kcal/mol
same,ΔgcrGm0 (298.15),[1]; ref [8],15.6 kcal/mol
"O=C1CN(/N=C/c2ccc([N+](=O)[O-])o2)C(=O)N1 [NFT, nitrofurantoin]",X2 (solubility),"[2]; 1-octanol, 298.15 K (Table 5)",3.61·10^5 mol.frac.
same,solubility X2·10^5,"[2]; 1-octanol, 298.15 K",3.61 mol. frac.
same,solubility X2·10^5,"[2]; 1-octanol, 303.15 K",4.97 mol. frac.
same,solubility X2·10^5,"[2]; 1-octanol, 308.15 K",6.53 mol. frac.
same,solubility X2·10^5,"[2]; 1-octanol, 313.15 K",8.26 mol. frac.
same,X2 (solubility),[2]; [6],1.49·10^5 mol.frac.
same,solubility X2·10^5,"[2]; buffer pH 2.0, 298.15 K",1.49 mol. frac.
same,solubility X2·10^5,"[2]; buffer pH 2.0, 303.15 K",1.82 mol. frac.
same,solubility X2·10^5,"[2]; buffer pH 2.0, 308.15 K",2.26 mol. frac.
same,solubility X2·10^5,"[2]; buffer pH 2.0, 313.15 K",2.46 mol. frac.
same,X2 (solubility),[2]; [7],3.28·10^5 mol.frac.
same,solubility X2·10^5,"[2]; buffer pH 7.4, 298.15 K",3.28 mol. frac.
same,solubility X2·10^5,"[2]; buffer pH 7.4, 303.15 K",4.33 mol. frac.
same,solubility X2·10^5,"[2]; buffer pH 7.4, 308.15 K",5.51 mol. frac.
same,solubility X2·10^5,"[2]; buffer pH 7.4, 313.15 K",6.72 mol. frac.
same,TΔSsol0,"[3]; 1-octanol, 298.15 K",4.18 kcal/mol
same,ΔGsol0,"[3]; 1-octanol, 298.15 K",6.07 kcal/mol
same,ΔHsol0,"[3]; 1-octanol, 298.15 K",10.2 ± 0.406 kcal/mol
same,ΔSsol0,"[3]; 1-octanol, 298.15 K",58.5 ± 2.5 J·K^−1·mol^−1
same,TΔSsol0,"[3]; buffer pH 2.0, 298.15 K",-0.22 kcal/mol
same,ΔGsol0,"[3]; buffer pH 2.0, 298.15 K",6.57 kcal/mol
same,ΔHsol0,"[3]; buffer pH 2.0, 298.15 K",6.36 ± 0.669 kcal/mol
same,ΔSsol0,"[3]; buffer pH 2.0, 298.15 K",−3.1 ± 3.7 J·K^−1·mol^−1
same,TΔSsol0,"[3]; buffer pH 7.4, 298.15 K",2.84 kcal/mol
same,ΔGsol0,"[3]; buffer pH 7.4, 298.15 K",6.12 kcal/mol
same,ΔHsol0,"[3]; buffer pH 7.4, 298.15 K",8.96 ± 0.454 kcal/mol
same,ΔSsol0,"[3]; buffer pH 7.4, 298.15 K",39.9 ± 2.7 J·K^−1·mol^−1
same,ςHsolv,"[3]; 1-octanol, 298.15 K",70.3%
same,ςHsolv,"[3]; buffer pH 2.0, 298.15 K",65.8%
same,ςHsolv,"[3]; buffer pH 7.4, 298.15 K",68.8%
same,ςTSsolv,"[3]; 1-octanol, 298.15 K",29.7%
same,ςTSsolv,"[3]; buffer pH 2.0, 298.15 K",34.2%
same,ςTSsolv,"[3]; buffer pH 7.4, 298.15 K",31.2%
same,TΔSsolv0,"[3]; 1-octanol, 298.15 K",-10.5 kcal/mol
same,ΔGsolv0,"[3]; 1-octanol, 298.15 K",-14.3 kcal/mol
same,ΔHsolv0,"[3]; 1-octanol, 298.15 K",-24.78 kcal/mol
same,ΔSsolv0,"[3]; 1-octanol, 298.15 K",−147.0 J·K^−1·mol^−1
same,TΔSsolv0,"[3]; buffer pH 2.0, 298.15 K",-14.9 kcal/mol
same,ΔGsolv0,"[3]; buffer pH 2.0, 298.15 K",-13.8 kcal/mol
same,ΔHsolv0,"[3]; buffer pH 2.0, 298.15 K",-28.66 kcal/mol
same,ΔSsolv0,"[3]; buffer pH 2.0, 298.15 K",−208.6 J·K^−1·mol^−1
same,TΔSsolv0,"[3]; buffer pH 7.4, 298.15 K",-11.8 kcal/mol
same,ΔGsolv0,"[3]; buffer pH 7.4, 298.15 K",-14.2 kcal/mol
same,ΔHsolv0,"[3]; buffer pH 7.4, 298.15 K",-26.05 kcal/mol
same,ΔSsolv0,"[3]; buffer pH 7.4, 298.15 K",−165.6 J·K^−1·mol^−1
same,298.15⋅ΔcrgSm0(298.15K),[4]; 298.15 K,14.7 kcal/mol
same,"ΔcrgGm0(298.15), sublimation Gibbs energy",[4]; 298.15 K,20.4 kcal/mol
same,"ΔcrgHm0(298.15K), sublimation enthalpy",[4]; 298.15 K,35.01 ± 0.17 kcal/mol
same,"ΔcrgSm0(298.15K), sublimation entropy",[4]; 298.15 K,205.5 ± 2.8 J·mol^−1·K^−1
same,"ΔcrgHm0(T), sublimation enthalpy",[4]; at experimental temperature T,33.44 ± 0.17 kcal/mol
same,ςH,"[4]; enthalpy term of sublimation, 298.15 K",70.5%
same,ςTS,"[4]; entropy term of sublimation, 298.15 K",29.5%
same,"p(298.15K), saturated vapor pressure",[4]; extrapolated to 298.15 K,1.19·10^−10 Pa
same,β = V^free/V^vdw,[4]; free volume in the crystal lattice over van der Waals volume,36.3%
O=C1CCC(=O)N1 [Succinimide],Δgcr Hm0 (298.15),[1]; ref [6],20 kcal/mol
same,ΔgcrGm0 (298.15),[1]; ref [6],8.77 kcal/mol
"O.O=C1CN(/N=C/c2ccc([N+](=O)[O-])o2)C(=O)N1 [[NFT + H2O], nitrofurantoin monohydrate]","ΔHw, vaporization enthalpy of water from the crystal","from DSC and TG, Equation (4)",14.4 kcal/mol
same,sublimation enthalpy computed using Equation (5),thermodynamic cycle: sublimation enthalpy of NFT + ΔHw,47.85 kcal/mol
same,activation energy of dehydration process,[5],46.8 to 47.1 kcal/mol
same,difference between equilibrium solubility of the monohydrate and solubility of anhydrous NFT,[2]; 313.15 K,≤ 15%
same,X2 (solubility),[2]; [6],0.73·10^5 mol.frac.
same,solubility X2·10^5,"[2]; buffer pH 2.0, 298.15 K",0.73 mol. frac.
same,solubility X2·10^5,"[2]; buffer pH 2.0, 303.15 K",1.07 mol. frac.
same,solubility X2·10^5,"[2]; buffer pH 2.0, 308.15 K",1.43 mol. frac.
same,solubility X2·10^5,"[2]; buffer pH 2.0, 313.15 K",1.96 mol. frac.
same,X2 (solubility),[2]; [7],1.98·10^5 mol.frac.
same,solubility X2·10^5,"[2]; buffer pH 7.4, 303.15 K",2.34 mol. frac.
same,solubility X2·10^5,"[2]; buffer pH 7.4, 308.15 K",3.83 mol. frac.
same,solubility X2·10^5,"[2]; buffer pH 7.4, 313.15 K",5.90 mol. frac.
same,TΔSsol0,"[3]; buffer pH 2.0, 298.15 K",5.04 kcal/mol
same,ΔGsol0,"[3]; buffer pH 2.0, 298.15 K",7 kcal/mol
same,ΔHsol0,"[3]; buffer pH 2.0, 298.15 K",12.1 ± 0.406 kcal/mol
same,ΔSsol0,"[3]; buffer pH 2.0, 298.15 K",70.9 ± 2.6 J·K^−1·mol^−1
same,TΔSsol0,"[3]; buffer pH 7.4, 298.15 K",10.6 kcal/mol
same,ΔGsol0,"[3]; buffer pH 7.4, 298.15 K",6.41 kcal/mol
same,ΔHsol0,"[3]; buffer pH 7.4, 298.15 K",17.2 ± 0.287 kcal/mol
same,ΔSsol0,"[3]; buffer pH 7.4, 298.15 K",148.5 ± 2.0 J·K^−1·mol^−1
